Experimental data: ChEMBL document CHEMBL1151449, “In vitro activity of DC-159a, a new broad-spectrum fluoroquinolone, compared with that of other agents against drug-susceptible and -resistant pneumococci” (2008)
In brackets after ≈: the same amount, converted by molar mass.

Experiments:
Format in all cases: functional
[1] = system: Streptococcus pneumoniae; test: Antibacterial activity against penicillin-resistant and quinolone-susceptible Streptococcus pneumoniae HMC 3583 expressing mefA by broth microdilution method
[2] = system: Streptococcus pneumoniae; test: Antibacterial activity against macrolide-, quinolone-susceptible and penicillin-intermediate Streptococcus pneumoniae HMC 100 by broth microdilution method
[3] = system: Streptococcus pneumoniae; test: Antibacterial activity against Streptococcus pneumoniae HMC 1156 harboring S81F and S79F mutation in quinolone-resistant determining regions of GyrA and ParC genes respectively showing efflux to ciprofloxacin, gemifloxacin by agar dilution method
[4] = system: Streptococcus pneumoniae; test: Antibacterial activity against Streptococcus pneumoniae HMC 1073 harboring S81F mutation in quinolone-resistant determining regions of GyrA gene, and I460V mutation in QRDR of ParE gene by agar dilution method
[5] = system: Streptococcus pneumoniae; test: (§1) Antibacterial activity against Streptococcus pneumoniae HMC 1078 harboring S81F mutation in quinolone-resistant determining regions of GyrA gene, S79F mutation in QRDR of ParC gene and I460V mutation in QRDR of ParE gene by agar dilution method
[6] = system: Streptococcus pneumoniae; test: Antibacterial activity against penicillin-, macrolide-susceptible and quinolone-resistant Streptococcus pneumoniae HMC 1074 harboring S81F, E85K mutation in quinolone-resistant determining regions of GyrA gene, S79F mutation in QRDR of ParC gene and I460V mutation in QRDR of ParE gene after 27 passages with gemifloxacin measured after 10 daily antibiotic-free subculturing by multi-step resistance selection technique
[7] = system: Streptococcus pneumoniae; test: Antibacterial activity against Streptococcus pneumoniae HMC 1076 harboring S81F mutation in quinolone-resistant determining regions of GyrA gene, D83N mutation in QRDR of ParC gene and I460V mutation in QRDR of ParE gene by agar dilution method
[8] = system: Streptococcus pneumoniae; test: (§2) Antibacterial activity against penicillin-resistant and quinolone-susceptible Streptococcus pneumoniae HMC 228 expressing ermB and harboring S81F mutation in quinolone-resistant determining regions of GyrA gene, D83N mutation in QRDR of ParC gene and I460V mutation in QRDR of ParE gene after 28 passages with DC-159a measured after 10 daily antibiotic-free subculturing by multi-step resistance selection technique
[9] = system: Streptococcus pneumoniae; test: as §1, with “against penicillin-, macrolide-susceptible and quinolone-resistant” for “against”, “1074” for “1078”, “broth microdilution” for “agar dilution”
[10] = system: Streptococcus pneumoniae; test: Antibacterial activity against azithromycin-resistant Streptococcus pneumoniae […] by agar dilution method
[11] = system: Streptococcus pneumoniae; test: (§3) Antibacterial activity against penicillin-susceptible, quinolone-resistant Streptococcus pneumoniae HMC 1072 expressing ermB and harboring S81F mutation in quinolone-resistant determining regions of GyrA gene, S79Y mutation in QRDR of ParC gene and I460V mutation in QRDR of ParE gene after 50 passages by broth microdilution method
[12] = system: Streptococcus pneumoniae; test: Antibacterial activity against Streptococcus pneumoniae HMC 1077 harboring S81Y and S79F mutation in quinolone-resistant determining regions of GyrA and ParC genes respectively by agar dilution method
[13] = system: Streptococcus pneumoniae; test: Antibacterial activity against Streptococcus pneumoniae HMC 1151 harboring D83N, K137N mutation in quinolone-resistant determining regions of ParC gene and I460V mutation in QRDR of ParE gene showing efflux to ciprofloxacin, gemifloxacin by agar dilution method
[14] = system: Streptococcus pneumoniae; test: Antibacterial activity against Streptococcus pneumoniae HMC 1139 harboring S81F mutation in quinolone-resistant determining regions of GyrA gene, S79F, K137N mutation in QRDR of ParC gene and I460V mutation in QRDR of ParE gene by agar dilution method
[15] = system: Streptococcus pneumoniae; test: Antibacterial activity against penicillin-susceptible Streptococcus pneumoniae ATCC 49619 by agar dilution method
[16] = system: Streptococcus pneumoniae; test: Antibacterial activity against Streptococcus pneumoniae HMC 2527 harboring S81Y mutation in quinolone-resistant determining regions of GyrA gene, S79F, K137N mutation in QRDR of ParC gene and I460V mutation in QRDR of ParE gene by agar dilution method
[17] = system: Streptococcus pneumoniae; test: Antibacterial activity against Streptococcus pneumoniae HMC 1060 harboring S81F mutation in quinolone-resistant determining regions of GyrA gene, S79F, K137N mutation in QRDR of ParC gene and I460V mutation in QRDR of ParE gene by agar dilution method
[18] = system: Streptococcus pneumoniae; test: Antibacterial activity against Streptococcus pneumoniae HMC 1066 harboring S81F mutation in quinolone-resistant determining regions of GyrA gene, S79F mutation in QRDR of ParC gene and I460V mutation in QRDR of ParE gene by agar dilution method
[19] = system: Streptococcus pneumoniae; test: Antibacterial activity against Streptococcus pneumoniae HMC 1059 harboring S81F mutation in quinolone-resistant determining regions of GyrA gene, S79F, K137N mutation in QRDR of ParC gene and I460N mutation in QRDR of ParE gene by agar dilution method
[20] = system: Streptococcus pneumoniae; test: as §2, with “gene, S79Y” for “gene, D83N”, “after 36” for “after 28”, “with moxifloxacin” for “with DC-159a”
[21] = system: Streptococcus pneumoniae; test: Antibacterial activity against Streptococcus pneumoniae HMC 4026 harboring S81Y mutation in quinolone-resistant determining regions of GyrA gene, S79F, K137N mutation in QRDR of ParC gene and I460V mutation in QRDR of ParE gene by agar dilution method
[22] = system: Streptococcus pneumoniae; test: (§4) Antibacterial activity against macrolide-, quinolone-susceptible and penicillin-intermediate Streptococcus pneumoniae HMC 100 harboring S81Y mutation in quinolone-resistant determining regions of GyrA gene after 22 passages with moxifloxacin measured after 10 daily antibiotic-free subculturing by multi-step resistance selection technique
[23] = system: Streptococcus pneumoniae; test: as §2, with “3583” for “228”, “mefA” for “ermB”, “GyrA” for “GyrA gene, D83N mutation in QRDR of ParC”, “I460V, D435N” for “I460V”, “46” for “28”, “gatifloxacin” for “DC-159a”
[24] = system: Streptococcus pneumoniae; test: Antibacterial activity against penicillin-resistant and quinolone-susceptible Streptococcus pneumoniae HMC 3583 expressing mefA and harboring I460V mutation in QRDR of ParE gene after 41 passages with gemifloxacin measured after 10 daily antibiotic-free subculturing by multi-step resistance selection technique
[25] = system: Streptococcus pneumoniae; test: Antibacterial activity against Streptococcus pneumoniae HMC 1147 harboring S81F mutation in quinolone-resistant determining regions of GyrA gene, S79F mutation in QRDR of ParC gene and I460V mutation in QRDR of ParE gene showing efflux to gemifloxacin by agar dilution method
[26] = system: Streptococcus pneumoniae; test: as §3, with “pneumoniae” for “pneumoniae HMC”, “gene” for “gene after 50 passages”
[27] = system: Streptococcus pneumoniae; test: Antibacterial activity against Streptococcus pneumoniae HMC 1071 harboring S81F mutation in quinolone-resistant determining regions of GyrA gene and S79F, K137N mutation in QRDR of ParC gene by agar dilution method
[28] = system: Streptococcus pneumoniae; test: Antibacterial activity against Streptococcus pneumoniae HMC 5041 harboring S81F and S79F mutation in quinolone-resistant determining regions of GyrA and ParC genes respectively by agar dilution method
[29] = system: Streptococcus pneumoniae; test: Antibacterial activity against macrolide-, quinolone-susceptible and penicillin-intermediate Streptococcus pneumoniae HMC 99 after 50 passages by broth microdilution method
[30] = system: Streptococcus pneumoniae; test: Antibacterial activity against penicillin-, macrolide- and quinolone-susceptible Streptococcus pneumoniae HMC 63 by broth microdilution method
[31] = system: Streptococcus pneumoniae; test: as §4, with “S79Y” for “S81Y”, “ParC” for “GyrA”, “34” for “22”, “gemifloxacin” for “moxifloxacin”

Structure (SMILES)	MIC [2] [µg/mL]	MIC [3] [µg/mL]	MIC [4] [µg/mL]	MIC [5] [µg/mL]	MIC [6] [µg/mL]	MIC [7] [µg/mL]	MIC [8] [µg/mL]	MIC [11] [µg/mL]	MIC [12] [µg/mL]	MIC [13] [µg/mL]	MIC [14] [µg/mL]	MIC [16] [µg/mL]	MIC [17] [µg/mL]	MIC [18] [µg/mL]	MIC [19] [µg/mL]	MIC [20] [µg/mL]	MIC [21] [µg/mL]	MIC [22] [µg/mL]	MIC [23] [µg/mL]	MIC [24] [µg/mL]	further results
COc1c(N2CCNC(C)C2)c(F)cc2c(=O)c(C(=O)O)cn(C3CC3)c12 (stereo not given) [GATIFLOXACIN]	0.5 (≈ 1.33 µM)	8 (≈ 21.3 µM)	4 (≈ 10.7 µM)	8 (≈ 21.3 µM)	16 (≈ 42.6 µM)	4 (≈ 10.7 µM)	4 (≈ 10.7 µM)	8 (≈ 21.3 µM)	8 (≈ 21.3 µM)	2 (≈ 5.33 µM)	8 (≈ 21.3 µM)	16 (≈ 42.6 µM)	4 (≈ 10.7 µM)	4 (≈ 10.7 µM)	8 (≈ 21.3 µM)	16 (≈ 42.6 µM)	16 (≈ 42.6 µM)	4 (≈ 10.7 µM)	8 (≈ 21.3 µM)	2 (≈ 5.33 µM)	MIC [1]: 0.25 µg/mL (≈ 0.666 µM); MIC [9]: 4 µg/mL (≈ 10.7 µM); MIC50 [10]: 0.5 µg/mL (≈ 1.33 µM); MIC90 [10]: 0.5 µg/mL (≈ 1.33 µM); MIC50 [15]: 0.5 µg/mL (≈ 1.33 µM); MIC90 [15]: 1 µg/mL (≈ 2.66 µM); MIC [25]: 8 µg/mL (≈ 21.3 µM); MIC [26]: 8 µg/mL (≈ 21.3 µM); MIC [27]: 8 µg/mL (≈ 21.3 µM); MIC [28]: 4 µg/mL (≈ 10.7 µM); MIC [29]: 0.5 µg/mL (≈ 1.33 µM); MIC [30]: 0.5 µg/mL (≈ 1.33 µM); MIC [31]: 4 µg/mL (≈ 10.7 µM)
COc1c(N2CC3(CC3)[C@](C)(N)C2)c(F)cc2c(=O)c(C(=O)O)cn([C@@H]3C[C@@H]3F)c12.O	0.12	1	1	1	4	0.5	1	1	1	0.25	1	1	0.5	0.5	1	1	1	0.5	1	1	MIC [1]: 0.12 µg/mL; MIC [9]: 1 µg/mL; MIC50 [10]: 0.12 µg/mL; MIC90 [10]: 0.12 µg/mL; MIC50 [15]: 0.12 µg/mL; MIC90 [15]: 0.25 µg/mL; MIC [25]: 1 µg/mL; MIC [26]: 1 µg/mL; MIC [27]: 1 µg/mL; MIC [28]: 1 µg/mL; MIC [29]: 0.125 µg/mL; MIC [30]: 0.12 µg/mL; MIC [31]: 0.5 µg/mL
CO/N=C1\CN(c2nc3c(cc2F)c(=O)c(C(=O)O)cn3C2CC2)CC1CN (stereo not given) [GEMIFLOXACIN]	0.06 (≈ 0.154 µM)	0.1 (≈ 0.257 µM)	0.125 (≈ 0.321 µM)	0.5 (≈ 1.28 µM)	2 (≈ 5.14 µM)	0.5 (≈ 1.28 µM)	1 (≈ 2.57 µM)	1 (≈ 2.57 µM)	0.25 (≈ 0.642 µM)	0.25 (≈ 0.642 µM)	0.25 (≈ 0.642 µM)	0.25 (≈ 0.642 µM)	0.25 (≈ 0.642 µM)	0.25 (≈ 0.642 µM)	0.5 (≈ 1.28 µM)	2 (≈ 5.14 µM)	0.5 (≈ 1.28 µM)	0.25 (≈ 0.642 µM)	8 (≈ 20.5 µM)	2 (≈ 5.14 µM)	MIC [1]: 0.03 µg/mL (≈ 0.077 µM); MIC [9]: 0.25 µg/mL (≈ 0.642 µM); MIC50 [10]: 0.03 µg/mL (≈ 0.077 µM); MIC90 [10]: 0.06 µg/mL (≈ 0.154 µM); MIC50 [15]: 0.03 µg/mL (≈ 0.077 µM); MIC90 [15]: 0.12 µg/mL (≈ 0.308 µM); MIC [25]: 1 µg/mL (≈ 2.57 µM); MIC [26]: 0.5 µg/mL (≈ 1.28 µM); MIC [27]: 0.5 µg/mL (≈ 1.28 µM); MIC [28]: 0.5 µg/mL (≈ 1.28 µM); MIC [29]: 0.125 µg/mL (≈ 0.321 µM); MIC [30]: 0.06 µg/mL (≈ 0.154 µM); MIC [31]: 1 µg/mL (≈ 2.57 µM)
COc1c(N2C[C@@H]3CCCN[C@@H]3C2)c(F)cc2c(=O)c(C(=O)O)cn(C3CC3)c12 [MOXIFLOXACIN]	0.25 (≈ 0.623 µM)	4 (≈ 9.96 µM)	2 (≈ 4.98 µM)	4 (≈ 9.96 µM)	16 (≈ 39.9 µM)	2 (≈ 4.98 µM)	2 (≈ 4.98 µM)	4 (≈ 9.96 µM)	4 (≈ 9.96 µM)	0.25 (≈ 0.623 µM)	4 (≈ 9.96 µM)	4 (≈ 9.96 µM)	2 (≈ 4.98 µM)	2 (≈ 4.98 µM)	4 (≈ 9.96 µM)	2 (≈ 4.98 µM)	4 (≈ 9.96 µM)	1 (≈ 2.49 µM)	4 (≈ 9.96 µM)	0.5 (≈ 1.25 µM)	MIC [25]: 4 µg/mL (≈ 9.96 µM); MIC [26]: 4 µg/mL (≈ 9.96 µM); MIC [27]: 4 µg/mL (≈ 9.96 µM); MIC [28]: 4 µg/mL (≈ 9.96 µM); MIC [30]: 0.25 µg/mL (≈ 0.623 µM); MIC [31]: 2 µg/mL (≈ 4.98 µM)
